The values below come from paper PMC11768839 (Viruses, 2024).

“And” between values parts separate entries of the source, which are not always exact repeats. Identical values can stand only once.

Data set [1] can be described thus: Cytotoxicity in Huh7 cells (alamarBlue). The conditions noted are these: human, listed with HCoV-229E qPCR assay. The format is cell-based. (Alamar Blue is a resazurin reagent that responds to reducing activity.)
Data set [2] concerns Coronavirus (HCoV-229E). Kind of data set: HCoV-229E qPCR assay (viral RNA release into media) in Huh7 cells.
The subject of data set [3] is HCoV-229E. The experiment in a line: HCoV-229E intracellular viral RNA accumulation after delayed compound addition. The data set is classed as cell-based. The conditions noted are these: compound added 16 hpi, 9 h after addition, MOI 2, Huh7 cells.
Data set [4] relates to HCoV-OC43. The experiment in a line: HCoV-OC43 viral release into media (RTqPCR) in Huh7 cells. The conditions noted are these: 2.5 µM, MOI of 2, 24 h.
Data set [5] concerns SARS-CoV-2 nucleocapsid (N) protein. Kind of data set: SARS-CoV-2 nucleocapsid (N) protein expression by western blot. The format is cell-based. The conditions noted are these: SARS-CoV-2 SB2, Huh7 cells, immunoblot. (In western blotting, separated proteins are transferred to a membrane and probed.)
Data set [6] has as its system HAdV-C5. The experiment in a line: Adenovirus HAdV-C5 virus yield in A549 cells (endpoint dilution). The format is cell-based, human adenovirus serotype 5. To be noted: 5 µM, HAdV-C5 100 IU/cell, 24 hpi.
Data set [7] relates to SARS-CoV-2. The data set is classed as cell-based.
The test system of data set [8] is HIV-1. More on the design: method as in earlier work. The conditions noted are these: HIV-1 replication; cited from earlier work.
Data set [9] concerns HCoV-OC43. The experiment in a line: HCoV-OC43 replication in human lung organoids (RTqPCR of media). The format is cell-based. To be noted: 2.5 µM added post-infection, MOI of 2, 3 or 6 days post-infection. A general note: Quantitative PCR measures a nucleic acid by following its amplification.
The format of data set [10] is in vivo.
Data set [11] is described as follows: Pharmacokinetics in mice. The format is in vivo.
The test system of data set [12] is SARS-CoV-2. The experiment in a line: SARS-CoV-2 replication in human lung organoids (RTqPCR of media). The format is cell-based. The conditions noted are these: 2.5 µM added post-infection, SB2, MOI of 2, 3 or 6 days post-infection.
Data set [13] concerns A549 cells.
Data set [14] deals with HCoV-229E. The experiment in a line: HCoV-229E infectious virus yield by TCID50 assay in Huh7 cells. The conditions noted are these: dose reducing HCoV-229E RNA in media by 50% (EC50, 1.2 µM), 24 h.
For data set [15], the system named is Influenza A Virus (PR8). The experiment in a line: Influenza PR8 qPCR assay (viral RNA release into media) in A549 cells.
Data set [16] deals with Influenza A Virus (PR8). The experiment in a line: Influenza PR8 TCID50 assay (infectivity) in A549 cells. To be noted: MOI of 2, A549 cells.
Data set [17] can be described thus: in vitro. To be noted: human.

In turn, `CC(C)(C)NC(=O)N[C@H](C(=O)N1C[C@H]2[C@@H]([C@H]1C(=O)NC(CC1CCC1)C(=O)C(N)=O)C2(C)C)C(C)(C)C` (stereo partly drawn) [Boceprevir, reference compound] gave a CC50 in data set [1] (MOI of 2) of over 100000 nM. Further, in data set [2] (MOI of 2, Huh7 cells), the EC50 (in general, the concentration at which the effect is half-maximal) was 111 ± 24 nM and the EC90 (usually the concentration at which the effect reaches the 90% level) was found to be 1200 ± 95 nM.

As for `O=[N+]([O-])c1ccc(Nc2ccc(Cl)c(C(F)(F)F)c2)c2nonc12` [Compound 5342191, N-[4-chloro-3-(trifluoromethyl)phenyl]-7-nitro-2,1,3-benzoxadiazol-4-amine], in data set [3], the “reduction of viral genomic RNA accumulation” value was ~ 50%. Further, the results for the CC50 in data set [1] (MOI of 0.01) and in data set [1] (MOI of 2) were over 1000 nM and 34000 ± 755 nM, respectively. Also, the “inhibition of viral release into the media” value in [4] is “over 90%”. Besides, the “reduction of SARS-CoV-2 nucleocapsid (N) protein expression” value in data set [5] is on record as “approximately 90%”. Also, the “reduction in virus yield (maximal effect)” value in data set [6] was ~ 1000 fold. In addition, the “suppression of the release of SARS-CoV-2” value in data set [7] is reported as “approximately 80%”. Besides, the EC50 in data set [8] was 750 nM; in data set [15] (MOI of 0.01), 47 ± 13 nM; in [15] (MOI of 2) it was 51 ± 42 nM; in data set [2] (MOI of 0.01) it was 73 ± 13 nM; in data set [2] (MOI of 2, Huh7 cells), 1200 ± 196 nM; in data set [16], 75 ± 17 nM. Also, the EC90 in data set [8] was 1750 nM; in [15] (MOI of 0.01), 149 ± 55 nM; in data set [15] (MOI of 2), 104 ± 23 nM; in data set [2] (MOI of 0.01), 857 ± 56 nM; in [2] (MOI of 2, Huh7 cells), 2500 ± 282 nM; in data set [16] it was 99 ± 8 nM. The “HCoV-OC43 replication in human lung organoids” value in data set [9] was “effectively blocked”. Besides, the “body weight / gross necroscopy findings” value in data set [10] (5342191-treated mice) is listed as “absence of significant changes in body weight”. Further, the tolerability result in data set [10] (daily oral dose of 40 mg/kg over 7 days, mice) is on record as “well tolerated”. In addition, in data set [11], the oral bioavailability result is “orally bioavailable”. In addition, in data set [11] (oral dose of 30 mg/kg, up to 8 h after administration, 30 mg/kg), the blood concentration maintained was 2 µg/mL and 5.5 µM. Besides, the “SARS-CoV-2 replication in human lung organoids” value in data set [12] is “effectively blocked”. Moreover, the “effect on cell metabolism” value in [13] is “limited effect”. Further, the “reduction in infectious virus yield” value in [14] is “over 90%”.

With `NC(=O)c1nc(F)c[nH]c1=O` [Favipiravir], in data set [17], the CC50 is over 100000 nM. In data set [16], the EC50 stood at 1200 ± 135 nM and it took 6200 ± 332 nM to reach the 90% level (EC90).

For `CC(C)C(=O)OC[C@H]1O[C@@H](n2ccc(NO)nc2=O)[C@H](O)[C@@H]1O` [Molnupiravir, reference compound], the CC50 in data set [1] (MOI of 2) is over 100000 nM. In addition, in data set [2] (MOI of 2, Huh7 cells), the EC50 stood at 25 ± 9 nM and the 90% effect level (EC90) was put at 137 ± 23 nM.

On to `CCOC(=O)C1=C[C@@H](OC(CC)CC)[C@H](NC(C)=O)[C@@H](N)C1` [Oseltamivir], for which the CC50 in [17] is over 100000 nM. In data set [16], this compound displayed an EC50 of 257 ± 40 nM and an EC90 of 1500 ± 209 nM.
